{"source": "patent US8192962B2", "about": "“Processes for detecting toxic substances” (Daikin Industries, Ltd., priority 2001, dated 2012)", "test_system": "Energy system protein genes", "assay": "DNA chip mRNA expression in yeast, energy system protein genes (Table 4)", "type": "cell-based, Saccharomyces cerevisiae S288C", "how_it_was_run": "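Measured as treated-to-untreated fluorescence ratio on a full-genome yeast DNA chip. Cells (S288C, YPD, 25° C.) were exposed in log phase for two hours to one chemical, dosed to curb growth without killing.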"}
{"smiles": "[Cl][Hg][Cl]", "note": "[(3), HgCl2]", "values": [{"measurement": "The level of expressed mRNA in the presence of chemical substance/The level of expressed mRNA in the absence of chemical substance", "setting": "yeast gene YAL060W", "value": 3.2}, {"measurement": "The level of expressed mRNA in the presence of chemical substance/The level of expressed mRNA in the absence of chemical substance", "setting": "yeast gene YBL058W, cells incubated two hours with the chemical substance", "value": 0.5}, {"measurement": "The level of expressed mRNA in the presence of chemical substance/The level of expressed mRNA in the absence of chemical substance", "setting": "yeast gene YBL099W, cells incubated two hours with the chemical substance", "value": 3.1}, {"measurement": "The level of expressed mRNA in the presence of chemical substance/The level of expressed mRNA in the absence of chemical substance", "setting": "yeast gene YBR001C, cells incubated two hours with the chemical substance", "value": 1.1}, {"measurement": "The level of expressed mRNA in the presence of chemical substance/The level of expressed mRNA in the absence of chemical substance", "setting": "yeast gene YBR185C, cells incubated two hours with the chemical substance", "value": 1.3}, {"measurement": "The level of expressed mRNA in the presence of chemical substance/The level of expressed mRNA in the absence of chemical substance", "setting": "yeast gene YBR221C, cells incubated two hours with the chemical substance", "value": 3.2}, {"measurement": "The level of expressed mRNA in the presence of chemical substance/The level of expressed mRNA in the absence of chemical substance", "setting": "yeast gene YCL040W", "value": 10.1}, {"measurement": "The level of expressed mRNA in the presence of chemical substance/The level of expressed mRNA in the absence of chemical substance", "setting": "yeast gene YCR012W", "value": 5.1}, {"measurement": "The level of expressed mRNA in the presence of chemical substance/The level of expressed mRNA in the absence of chemical substance", "setting": "yeast gene YCR046C, cells incubated two hours with the chemical substance", "value": 1.2}, {"measurement": "The level of expressed mRNA in the presence of chemical substance/The level of expressed mRNA in the absence of chemical substance", "setting": "yeast gene YCR105W, cells incubated two hours with the chemical substance", "value": 1.2}, {"measurement": "The level of expressed mRNA in the presence of chemical substance/The level of expressed mRNA in the absence of chemical substance", "setting": "yeast gene YDL021W", "value": 2.4}, {"measurement": "The level of expressed mRNA in the presence of chemical substance/The level of expressed mRNA in the absence of chemical substance", "setting": "yeast gene YDL067C, cells incubated two hours with the chemical substance", "value": 1.6}, {"measurement": "The level of expressed mRNA in the presence of chemical substance/The level of expressed mRNA in the absence of chemical substance", "setting": "yeast gene YDL078C, cells incubated two hours with the chemical substance", "value": 1.2}, {"measurement": "The level of expressed mRNA in the presence of chemical substance/The level of expressed mRNA in the absence of chemical substance", "setting": "yeast gene YDL107W, cells incubated two hours with the chemical substance", "value": 1.0}, {"measurement": "The level of expressed mRNA in the presence of chemical substance/The level of expressed mRNA in the absence of chemical substance", "setting": "yeast gene YDL174C", "value": 0.9}, {"measurement": "The level of expressed mRNA in the presence of chemical substance/The level of expressed mRNA in the absence of chemical substance", "setting": "yeast gene YDL181W, cells incubated two hours with the chemical substance", "value": 1.9}, {"measurement": "The level of expressed mRNA in the presence of chemical substance/The level of expressed mRNA in the absence of chemical substance", "setting": "yeast gene YDR001C", "value": 2.6}, {"measurement": "The level of expressed mRNA in the presence of chemical substance/The level of expressed mRNA in the absence of chemical substance", "setting": "yeast gene YDR050C, cells incubated two hours with the chemical substance", "value": 2.3}, {"measurement": "The level of expressed mRNA in the presence of chemical substance/The level of expressed mRNA in the absence of chemical substance", "setting": "yeast gene YDR079W, cells incubated two hours with the chemical substance", "value": 0.8}, {"measurement": "The level of expressed mRNA in the presence of chemical substance/The level of expressed mRNA in the absence of chemical substance", "setting": "yeast gene YDR178W, cells incubated two hours with the chemical substance", "value": 3.4}, {"measurement": "The level of expressed mRNA in the presence of chemical substance/The level of expressed mRNA in the absence of chemical substance", "setting": "yeast gene YDR231C", "value": 1.0}, {"measurement": "The level of expressed mRNA in the presence of chemical substance/The level of expressed mRNA in the absence of chemical substance", "setting": "yeast gene YDR298C, cells incubated two hours with the chemical substance", "value": 2.6}, {"measurement": "The level of expressed mRNA in the presence of chemical substance/The level of expressed mRNA in the absence of chemical substance", "setting": "yeast gene YDR377W, cells incubated two hours with the chemical substance", "value": 1.3}, {"measurement": "The level of expressed mRNA in the presence of chemical substance/The level of expressed mRNA in the absence of chemical substance", "setting": "yeast gene YDR529C, cells incubated two hours with the chemical substance", "value": 0.9}, {"measurement": "The level of expressed mRNA in the presence of chemical substance/The level of expressed mRNA in the absence of chemical substance", "setting": "yeast gene YEL024W, cells incubated two hours with the chemical substance", "value": 3.8}, {"measurement": "The level of expressed mRNA in the presence of chemical substance/The level of expressed mRNA in the absence of chemical substance", "setting": "yeast gene YEL039C, cells incubated two hours with the chemical substance", "value": 1.3}, {"measurement": "The level of expressed mRNA in the presence of chemical substance/The level of expressed mRNA in the absence of chemical substance", "setting": "yeast gene YER178W", "value": 3.6}, {"measurement": "The level of expressed mRNA in the presence of chemical substance/The level of expressed mRNA in the absence of chemical substance", "setting": "yeast gene YFL057C", "value": 1.5}, {"measurement": "The level of expressed mRNA in the presence of chemical substance/The level of expressed mRNA in the absence of chemical substance", "setting": "yeast gene YFR053C", "value": 3.0}, {"measurement": "The level of expressed mRNA in the presence of chemical substance/The level of expressed mRNA in the absence of chemical substance", "setting": "yeast gene YGL018C, cells incubated two hours with the chemical substance", "value": 1.8}, {"measurement": "The level of expressed mRNA in the presence of chemical substance/The level of expressed mRNA in the absence of chemical substance", "setting": "yeast gene YGL062W", "value": 1.1}, {"measurement": "The level of expressed mRNA in the presence of chemical substance/The level of expressed mRNA in the absence of chemical substance", "setting": "yeast gene YGL187C, cells incubated two hours with the chemical substance", "value": 1.6}, {"measurement": "The level of expressed mRNA in the presence of chemical substance/The level of expressed mRNA in the absence of chemical substance", "setting": "yeast gene YGL191W, cells incubated two hours with the chemical substance", "value": 1.4}, {"measurement": "The level of expressed mRNA in the presence of chemical substance/The level of expressed mRNA in the absence of chemical substance", "setting": "yeast gene YGL205W, cells incubated two hours with the chemical substance", "value": 0.7}, {"measurement": "The level of expressed mRNA in the presence of chemical substance/The level of expressed mRNA in the absence of chemical substance", "setting": "yeast gene YGL256W, cells incubated two hours with the chemical substance", "value": 1.1}, {"measurement": "The level of expressed mRNA in the presence of chemical substance/The level of expressed mRNA in the absence of chemical substance", "setting": "yeast gene YGR043C", "value": 3.2}, {"measurement": "The level of expressed mRNA in the presence of chemical substance/The level of expressed mRNA in the absence of chemical substance", "setting": "yeast gene YGR062C, cells incubated two hours with the chemical substance, 25° C., YPD medium", "value": 0.7}, {"measurement": "The level of expressed mRNA in the presence of chemical substance/The level of expressed mRNA in the absence of chemical substance", "setting": "yeast gene YGR087C, cells incubated two hours with the chemical substance", "value": 1.7}, {"measurement": "The level of expressed mRNA in the presence of chemical substance/The level of expressed mRNA in the absence of chemical substance", "setting": "yeast gene YGR174C, cells incubated two hours with the chemical substance", "value": 0.6}, {"measurement": "The level of expressed mRNA in the presence of chemical substance/The level of expressed mRNA in the absence of chemical substance", "setting": "yeast gene YGR192C", "value": 3.8}, {"measurement": "The level of expressed mRNA in the presence of chemical substance/The level of expressed mRNA in the absence of chemical substance", "setting": "yeast gene YGR244C", "value": 1.6}, {"measurement": "The level of expressed mRNA in the presence of chemical substance/The level of expressed mRNA in the absence of chemical substance", "setting": "yeast gene YGR254W", "value": 3.8}, {"measurement": "The level of expressed mRNA in the presence of chemical substance/The level of expressed mRNA in the absence of chemical substance", "setting": "yeast gene YHR179W", "value": 2.6}, {"measurement": "The level of expressed mRNA in the presence of chemical substance/The level of expressed mRNA in the absence of chemical substance", "setting": "yeast gene YIL160C", "value": 2.3}, {"measurement": "The level of expressed mRNA in the presence of chemical substance/The level of expressed mRNA in the absence of chemical substance", "setting": "yeast gene YIR031C, cells incubated two hours with the chemical substance", "value": 0.6}, {"measurement": "The level of expressed mRNA in the presence of chemical substance/The level of expressed mRNA in the absence of chemical substance", "setting": "yeast gene YJL052W", "value": 4.0}, {"measurement": "The level of expressed mRNA in the presence of chemical substance/The level of expressed mRNA in the absence of chemical substance", "setting": "yeast gene YJL121C, cells incubated two hours with the chemical substance", "value": 1.9}, {"measurement": "The level of expressed mRNA in the presence of chemical substance/The level of expressed mRNA in the absence of chemical substance", "setting": "yeast gene YJL166W, cells incubated two hours with the chemical substance", "value": 1.6}, {"measurement": "The level of expressed mRNA in the presence of chemical substance/The level of expressed mRNA in the absence of chemical substance", "setting": "yeast gene YJL216C, cells incubated two hours with the chemical substance", "value": 2.2}, {"measurement": "The level of expressed mRNA in the presence of chemical substance/The level of expressed mRNA in the absence of chemical substance", "setting": "yeast gene YJR009C", "value": 5.6}]}
